Data from ChEMBL document CHEMBL5360660, “Cyclin-Dependent Kinase Degradation via E3 Ligase Binding for Potential Disease Modulation in Cancer Treatment” (ACS Med Chem Lett, 2023).

Experiments:
[1] = target: Protein cereblon/Cyclin-dependent kinase 5 (Homo sapiens, UniProt Q00535+Q96SW2); experiment: PROTAC activity at CRBN/CDK5 in HEK293 cells assessed as induction of CDK5 degradation incubated for 24 hrs by Western blotting analysis; type: cell-based
[2] = target: Protein cereblon/Cyclin-dependent kinase 2 (Homo sapiens, UniProt P24941+Q96SW2); experiment: PROTAC activity at CRBN/CDK2 in HEK293 cells assessed as induction of CDK2 degradation incubated for 24 hrs by Western blotting analysis; type: cell-based
[3] = target: Protein cereblon/Cyclin-dependent kinase 9 (Homo sapiens, UniProt P50750+Q96SW2); experiment: PROTAC activity at CRBN/CDK9 in HEK293 cells assessed as induction of CDK9 degradation incubated for 24 hrs by Western blotting analysis; type: cell-based
[4] = target: Cyclin-dependent kinase 9 (Homo sapiens, UniProt P50750); experiment: Binding affinity to CDK9 (unknown origin) assessed as dissociation constant
[5] = target: Cyclin-dependent kinase 5 (Homo sapiens, UniProt Q00535); experiment: Binding affinity to CDK5 (unknown origin) assessed as dissociation constant
Sequence of Cyclin-dependent kinase 5 (Q00535 whole entry): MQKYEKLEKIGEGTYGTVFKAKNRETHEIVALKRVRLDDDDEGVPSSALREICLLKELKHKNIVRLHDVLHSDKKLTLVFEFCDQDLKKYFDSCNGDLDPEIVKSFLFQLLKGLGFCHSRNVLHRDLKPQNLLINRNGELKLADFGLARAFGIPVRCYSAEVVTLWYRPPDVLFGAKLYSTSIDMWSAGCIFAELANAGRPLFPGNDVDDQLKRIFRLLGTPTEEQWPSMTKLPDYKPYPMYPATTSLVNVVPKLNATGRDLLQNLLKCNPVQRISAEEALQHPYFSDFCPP

Sequence of Protein cereblon/Cyclin-dependent kinase 9 (P50750 whole entry): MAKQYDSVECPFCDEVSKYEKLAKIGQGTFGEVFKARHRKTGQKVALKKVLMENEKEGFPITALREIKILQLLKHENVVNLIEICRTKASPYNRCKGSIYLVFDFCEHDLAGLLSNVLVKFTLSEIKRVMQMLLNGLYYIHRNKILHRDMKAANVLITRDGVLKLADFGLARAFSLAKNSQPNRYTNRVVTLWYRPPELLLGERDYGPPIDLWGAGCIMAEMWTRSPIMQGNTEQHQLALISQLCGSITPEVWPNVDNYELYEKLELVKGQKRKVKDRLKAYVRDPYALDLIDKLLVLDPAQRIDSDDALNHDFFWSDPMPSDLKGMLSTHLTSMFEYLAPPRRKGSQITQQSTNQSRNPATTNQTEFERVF
Sequence of Protein cereblon/Cyclin-dependent kinase 9 (Q96SW2 whole entry): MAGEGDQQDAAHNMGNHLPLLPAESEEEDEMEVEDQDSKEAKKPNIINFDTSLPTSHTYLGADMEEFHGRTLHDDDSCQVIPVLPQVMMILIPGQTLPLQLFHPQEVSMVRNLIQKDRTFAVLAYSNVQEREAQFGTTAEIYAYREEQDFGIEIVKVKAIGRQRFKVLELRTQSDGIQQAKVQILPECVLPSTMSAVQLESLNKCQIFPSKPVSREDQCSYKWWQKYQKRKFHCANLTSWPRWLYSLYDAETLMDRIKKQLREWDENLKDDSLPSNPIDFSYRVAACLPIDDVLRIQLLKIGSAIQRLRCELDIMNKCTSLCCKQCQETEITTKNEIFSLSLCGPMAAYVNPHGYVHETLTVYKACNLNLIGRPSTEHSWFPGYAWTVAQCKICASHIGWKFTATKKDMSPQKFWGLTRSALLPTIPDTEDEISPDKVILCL
Sequence of Protein cereblon/Cyclin-dependent kinase 5 (Q00535 whole entry): as the sequence (Q00535 whole entry) above
Sequence of Protein cereblon/Cyclin-dependent kinase 5 (Q96SW2 whole entry): as the sequence (Q96SW2 whole entry) above
Sequence of Cyclin-dependent kinase 9 (P50750 whole entry): as the sequence (P50750 whole entry) above

SMILES	IC50 [1]	IC50 [2]	IC50 [3]	Kd [4]	Kd [5]
O=C(CCCOc1ccc(CC(=O)Nc2cc(C3CCC3)[nH]n2)cc1)NCCCCNc1cccc2c1C(=O)N(C1CCC(=O)NC1=O)C2=O (configuration not stated)	7 nM	155 nM	530 nM		
O=C1CCC(N2C(=O)c3cccc(OCCCCCOc4ccc(CC(=O)Nc5cc(C6CCC6)n[nH]5)cc4)c3C2=O)C(=O)N1 (configuration not stated)	32 nM		1080 nM	1060 nM	230 nM
